Where “and” joins values, the source holds several entries; their conditions need not be identical. Equal values may be shown once. Read-outs that look alike come from different tables or passages of the source. Square brackets hold non-standard residues; d marks the D form. Peptide text beside a SMILES is read from it. Orn = NCCC[C@H](N)C(=O)O
Target: T1, recombinant human cGAS enzyme (hcGAS-ΔN, residues 147–522) (Homo sapiens, UniProt Q8N884)
T1 construct: N-terminally truncated human cGAS (hcGAS-ΔN, residues 147–522); 6xHis-SUMO (N, cleaved yes); made in house; host or cells: Escherichia coli BL21 (DE3)
Assay: RNA-based fluorescent biosensor assay of cGAS activity (2',3'-cGAMP formation), in vitro screening
Assay type: biochemical
Conditions: for Remaining activity (%), Fig. 1a source data / remaining activity at 20 µM: 20 μM, replicate values; for remaining activity at 20 µM: read-out: Remaining activity (%), Fig. 1a source data
Text: To screen direct cGAS inhibitors targeting protein-DNA interface from our developed focused library of macrocyclic peptides, we applied an RNA-based fluorescent biosensor for 2’,3’-cGAMP to detect cGAS activity in vitro (Supplementary Fig. 1a)[49]. The formation of 2’,3’-cGAMP from ATP and GTP was catalyzed by recombinant human cGAS enzyme (hcGAS-ΔN, residues 147–522, Supplementary Fig. 1b) in the presence of ISD (interferon stimulatory DNA, a 45-bp dsDNA), which was readily quantified by the RNA-based fluorescent biosensor and was further confirmed by ion exchange chromatography (Supplementary Fig. 1c). […] Subsequently, a total of 90 macrocyclic peptides were screened at a concentration of 20 μM (Fig. 1a and Supplementary Fig. 1e), and 4 hits (XQ2, XQ8, XQ19, and XQ46) were obtained for further testing at a cut-off of 40% inhibition (Supplementary Table 1). To evaluate the inhibitory effect of the hits against cGAS in cells, we employed real-time quantitative PCR (qPCR) to examine mRNA levels of IFNΒ1 in THP1 cells. The reported cGAS inhibitor RU.521 was used as the positive control, and the non-active peptide XQ28 in the screening assay was used as the negative control. […] The inhibition of cGAS by these hits was further confirmed in the reporter cell line THP1-Lucia ISG (Invivogen) that expresses secreted luciferase induced by an IRF3-inducible ISG54 promoter (Fig. 1c). The discrepancy between the inhibitory effect of the hits in protein and cellular assays may be attributed to their different cellular permeability.
The high-throughput screening (HTS) experiments of cGAS activity are based on the method previously described. To initiate the enzyme reaction, ISD was added to the reaction solution (40 mM Tris-HCl, pH 7.5, 100 mM NaCl, 10 mM MgCl2) containing hcGAS-ΔN, ATP (Sangon Biotech, Cat# A600311) and GTP (Sangon Biotech, Cat# A620332) in a total volume of 20 ul with the final concentration of 0.5 μM, 1.5 μM, 1 mM, 1 mM, respectively, and incubated for 2 h at 37 °C. For HTS experiments, compounds were added to the same reaction conditions as described above with the final concentration of 20 μM. Z’ factors were calculated from three replicates in the 384-well plate.

[1] = peptides screened at 20 μM, Supplementary Table 1 / Fig. S5b, read-out: Inhibition %

T1 sequence (Q8N884 147-522, stated change not applied): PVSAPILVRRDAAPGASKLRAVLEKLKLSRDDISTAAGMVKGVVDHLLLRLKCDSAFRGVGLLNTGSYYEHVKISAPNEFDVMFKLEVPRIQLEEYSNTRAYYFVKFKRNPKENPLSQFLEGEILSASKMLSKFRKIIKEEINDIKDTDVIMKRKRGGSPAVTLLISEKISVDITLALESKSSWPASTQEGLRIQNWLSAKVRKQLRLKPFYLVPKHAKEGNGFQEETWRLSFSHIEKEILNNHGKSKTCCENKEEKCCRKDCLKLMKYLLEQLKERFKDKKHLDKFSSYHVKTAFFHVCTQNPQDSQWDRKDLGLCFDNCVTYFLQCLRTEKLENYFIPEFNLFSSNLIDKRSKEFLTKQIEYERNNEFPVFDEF

Structure (SMILES)	Remaining activity (%), Fig. 1a source data	remaining activity at 20 µM [%]	inhibition at 20 µM [1] [%]	inhibition at 20 µM [%]
CC(C)C[C@@H]1NC(=O)[C@H](CCCN)NC(=O)[C@H](C(C)C)NC(=O)[C@@H]2CCCN2C(=O)[C@@H](Cc2ccccc2)NC(=O)[C@H](CC(C)C)NC(=O)[C@H](CCCN)NC(=O)[C@H](C(C)C)NC(=O)[C@@H]2CCCN2C(=O)[C@@H](Cc2ccccc2)NC1=O [XQ39, Cyclo (LfPV(Orn)LfPV(Orn))] (cyclo(V[Orn]L[dF]PV[Orn]L[dF]P))	96.3833% and 97.8523%	97.2	3	
CC(C)C[C@@H]1NC(=O)[C@H](CCCNC(=N)N)NC(=O)[C@H]([C@@H](C)O)NC(=O)[C@@H]2CCCN2C(=O)[C@@H](C)NC(=O)[C@H](CC(C)C)NC(=O)[C@H](CCCNC(=N)N)NC(=O)[C@H]([C@@H](C)O)NC(=O)[C@@H]2CCCN2C(=O)[C@@H](C)NC1=O [XQ40, Cyclo (LaPTRLaPTR)] (cyclo(L[dA]PTRL[dA]PTR))	115.337% and 116.119%	117	0	
CC(C)C[C@@H]1NC(=O)[C@H](CCCNC(=N)N)NC(=O)[C@H]([C@@H](C)O)NC(=O)[C@@H]2CCCN2C(=O)[C@@H](Cc2ccccc2)NC(=O)[C@H](CC(C)C)NC(=O)[C@H](CCCNC(=N)N)NC(=O)[C@H](C(C)C)NC(=O)[C@@H]2CCCN2C(=O)[C@@H](Cc2ccccc2)NC1=O [XQ42, Cyclo (LfPTRLfPVR)] (cyclo(L[dF]PTRL[dF]PVR))	87.273% and 87.6684%	86	13	
CC(C)C[C@@H]1NC(=O)[C@H](C)NC(=O)[C@H](CCCNC(=N)N)NC(=O)[C@@H]2CCCN2C(=O)[C@@H](Cc2ccccc2)NC(=O)[C@H](CC(C)C)NC(=O)[C@H](CCCNC(=N)N)NC(=O)[C@H](C(C)C)NC(=O)[C@@H]2CCCN2C(=O)[C@@H](Cc2ccccc2)NC1=O [XQ43, Cyclo (LfPRALfPVR)] (cyclo(AL[dF]PVRL[dF]PR))	77.1619% and 77.2258%	76.3	23	
CC(C)C[C@@H]1NC(=O)[C@H](C)NC(=O)[C@H](C(C)C)NC(=O)[C@@H]2CCCN2C(=O)[C@@H](Cc2ccccc2)NC(=O)[C@H](CCCNC(=N)N)NC(=O)[C@H](CCCNC(=N)N)NC(=O)[C@H](C(C)C)NC(=O)[C@@H]2CCCN2C(=O)[C@@H](Cc2ccccc2)NC1=O [XQ44, Cyclo (RfPVALfPVR)] (cyclo(AL[dF]PVRR[dF]PV))	107.77% and 107.519%	107	0	
CC(C)C[C@@H]1NC(=O)[C@H](C)NC(=O)[C@H](C(C)C)NC(=O)[C@@H]2CCCN2C(=O)[C@@H](Cc2ccccc2)NC(=O)[C@H](CC(C)C)NC(=O)[C@H](CCCNC(=N)N)NC(=O)[C@H](C(C)C)NC(=O)[C@H](CCCNC(=N)N)NC(=O)[C@@H](Cc2ccccc2)NC1=O [XQ45, Cyclo (LfRVRLfPVA)] (cyclo(AL[dF]RVRL[dF]PV))	110.841% and 109.702%	115	0	
CC(C)C[C@@H]1NC(=O)[C@H](CCCNC(=N)N)NC(=O)[C@H](CC(C)C)NC(=O)[C@@H]2CCCN2C(=O)[C@@H](Cc2ccccc2)NC(=O)[C@H](C)NC(=O)[C@H](CCCNC(=N)N)NC(=O)[C@H](C(C)C)NC(=O)[C@@H]2CCCN2C(=O)[C@@H](Cc2ccccc2)NC1=O [XQ47, Cyclo (AfPLRLfPVR)] (cyclo(A[dF]PLRL[dF]PVR))			0	
CC(C)C[C@@H]1NC(=O)[C@H](CCCNC(=N)N)NC(=O)[C@H](C(C)C)NC(=O)[C@H](CC(C)C)NC(=O)[C@@H](Cc2ccccc2)NC(=O)[C@H](C)NC(=O)[C@H](CCCNC(=N)N)NC(=O)[C@H](C(C)C)NC(=O)[C@@H]2CCCN2C(=O)[C@@H](Cc2ccccc2)NC1=O [XQ48, Cyclo (AfLVRLfPVR)] (cyclo(A[dF]LVRL[dF]PVR))			0	
CC(C)C[C@@H]1NC(=O)[C@H](CCCNC(=N)N)NC(=O)[C@H](C(C)C)NC(=O)[C@@H]2CCCN2C(=O)[C@@H](CC(C)C)NC(=O)[C@H](C)NC(=O)[C@H](CCCNC(=N)N)NC(=O)[C@H](C(C)C)NC(=O)[C@@H]2CCCN2C(=O)[C@@H](Cc2ccccc2)NC1=O [XQ49, Cyclo (AlPVRLfPVR)] (cyclo(A[dL]PVRL[dF]PVR))				0
CC(C)C[C@@H]1NC(=O)[C@H](CCCNC(=N)N)NC(=O)[C@H](C(C)C)NC(=O)[C@@H]2CCCN2C(=O)[C@@H](Cc2ccccc2)NC(=O)[C@H](C)NC(=O)[C@H](CC(C)C)NC(=O)[C@H](C(C)C)NC(=O)[C@@H]2CCCN2C(=O)[C@@H](Cc2ccccc2)NC1=O [XQ50, Cyclo (LfPVLAfPVR)] (cyclo(A[dF]PVRL[dF]PVL))			0	
CC(C)C[C@@H]1NC(=O)[C@H](CCCNC(=N)N)NC(=O)[C@H](C(C)C)NC(=O)[C@@H]2CCCN2C(=O)[C@@H](Cc2ccccc2)NC(=O)[C@H](C)NC(=O)[C@H](CCCNC(=N)N)NC(=O)[C@H](CC(C)C)NC(=O)[C@@H]2CCCN2C(=O)[C@@H](Cc2ccccc2)NC1=O [XQ51, Cyclo (LfPLRAfPVR)] (cyclo(A[dF]PVRL[dF]PLR))			0	
CC(C)C[C@@H]1NC(=O)[C@H](CCCNC(=N)N)NC(=O)[C@H](C(C)C)NC(=O)[C@@H]2CCCN2C(=O)[C@@H](Cc2ccccc2)NC(=O)[C@H](C)NC(=O)[C@H](CCCNC(=N)N)NC(=O)[C@H](C(C)C)NC(=O)[C@H](CC(C)C)NC(=O)[C@@H](Cc2ccccc2)NC1=O [XQ52, Cyclo (LfLVRAfPVR)] (cyclo(A[dF]PVRL[dF]LVR))			0	
CC(C)C[C@@H]1NC(=O)[C@H](CCCNC(=N)N)NC(=O)[C@H](C(C)C)NC(=O)[C@@H]2CCCN2C(=O)[C@@H](Cc2ccccc2)NC(=O)[C@H](C)NC(=O)[C@H](CCCNC(=N)N)NC(=O)[C@H](C(C)C)NC(=O)[C@@H]2CCCN2C(=O)[C@@H](CC(C)C)NC1=O [XQ53, Cyclo (LlPVRAfPVR)] (cyclo(A[dF]PVRL[dL]PVR))			0	
CC(C)C[C@@H]1NC(=O)[C@H](CCCNC(=N)N)NC(=O)[C@H](C(C)C)NC(=O)[C@@H]2CCCN2C(=O)[C@@H](Cc2ccccc2)NC(=O)[C@H](CC(C)C)NC(=O)[C@H](CCCNC(=N)N)NC(=O)[C@H](CC(C)C)NC(=O)[C@@H]2CCCN2C(=O)[C@@H](Cc2ccccc2)NC1=O [XQ54, Cyclo (LfPLRLfPVR)] (cyclo(LRL[dF]PVRL[dF]P))			0	
CC(C)C[C@@H]1NC(=O)[C@H](C)NC(=O)[C@H](C(C)C)NC(=O)[C@@H]2CCCN2C(=O)[C@@H](CCCNC(=N)N)NC(=O)[C@H](CC(C)C)NC(=O)[C@H](CCCNC(=N)N)NC(=O)[C@H](C(C)C)NC(=O)[C@@H]2CCCN2C(=O)[C@@H](Cc2ccccc2)NC1=O [XQ55, Cyclo (LrPVALfPVR)] (cyclo(AL[dF]PVRL[dR]PV))			0	
CC(C)C[C@@H]1NC(=O)[C@H](C)NC(=O)[C@H](C(C)C)NC(=O)[C@@H]2CCCN2C(=O)[C@@H](Cc2ccccc2)NC(=O)[C@H](CC(C)C)NC(=O)[C@H](CCCNC(=N)N)NC(=O)[C@H](C(C)C)NC(=O)[C@@H]2CCCN2C(=O)[C@@H](CCCNC(=N)N)NC1=O [XQ56, Cyclo (LrPVRLfPVA)] (cyclo(AL[dR]PVRL[dF]PV))			0	
CC(C)C[C@@H]1NC(=O)[C@H](CCCNC(=N)N)NC(=O)[C@H](C(C)C)NC(=O)[C@H](C)NC(=O)[C@@H](Cc2ccccc2)NC(=O)[C@H](C)NC(=O)[C@H](CC(=O)O)NC(=O)[C@H](C(C)C)NC(=O)[C@@H]2CCCN2C(=O)[C@@H](Cc2ccccc2)NC1=O [XQ57, Cyclo (LfPVDAfAVR)] (cyclo(AVRL[dF]PVDA[dF]))			0	
CC(C)C[C@@H]1NC(=O)[C@H](CC(=O)O)NC(=O)[C@H](C(C)C)NC(=O)[C@@H]2CCCN2C(=O)[C@@H](Cc2ccccc2)NC(=O)[C@H](C)NC(=O)[C@H](CCCNC(=N)N)NC(=O)[C@H](C)NC(=O)[C@@H]2CCCN2C(=O)[C@@H](Cc2ccccc2)NC1=O [XQ58, Cyclo (AfPVDLfPAR)] (cyclo(ARA[dF]PVDL[dF]P))			0	
CC(C)C[C@@H]1NC(=O)[C@H](CC(=O)O)NC(=O)[C@H]([C@@H](C)O)NC(=O)[C@@H]2CCCN2C(=O)[C@@H](Cc2ccccc2)NC(=O)[C@H](CC(C)C)NC(=O)[C@H](CCCNC(=N)N)NC(=O)[C@H]([C@@H](C)O)NC(=O)[C@H](C)NC(=O)[C@@H](Cc2ccccc2)NC1=O [XQ59, Cyclo (LfPTDLfATR)] (cyclo(ATRL[dF]PTDL[dF]))			0	

— article PMC10545747, “Development of cyclopeptide inhibitors of cGAS targeting protein-DNA interaction and phase separation” (Nature Communications, 2023)
